Source: patent publication US8455251B2, “Method for isolating and culturing adult stem cells derived from human amniotic epithelium” (RNL Bio Co., Ltd., priority 2007, dated 2013)

Columns and labels:
Type in all cases: cell-based, human
[1] = system: amniotic epithelial cell-derived adult stem cells; experiment: Proliferation of stem cells according to ROCK inhibitor treatment period
Method: In order to further improve the proliferation ability of the amniotic epithelial cells obtained in Example 1, the method used in the embryonic stem cell study (Watanabe et al., Nature Biotechnology, 25:681, 2007) and the method of adding ROCK inhibitor during the culture were compared. In other words, the culture in which 10 μM of ROCK inhibitor was added only before reseeding was compared with the culture in which the ROCK inhibitor was added even after reseeding.

[2] = system: amniotic epithelial cell-derived adult stem cells; experiment: Effect of the addition of ROCK inhibitor on proliferation of stem cells (Comparative Example 1); details: 10 μM; observed 1, 2 and 3 days after seeding
Method: In order to examine the effect of ROCK inhibitor, 4×10^6 amniotic epithelial cells obtained in Example 1 were subcultured in a DMEM/F-12 medium containing FBS, ascorbic acid, epidermal growth factor, insulin and an antibiotic for 4 days. Then, the cells were seeded into each of a medium containing 10 μM of the ROCK inhibitor Y-27632 and a medium containing no ROCK inhibitor and were observed 1 day, 2 days and 3 days after seeding.

[3] = system: amniotic epithelial cell-derived adult stem cells; experiment: Proliferation of stem cells at various concentrations of ROCK inhibitor; parameters: proliferation of the cells: dose or concentration left out as unconfirmed
Method: In order to examine the proliferation potential of amniotic epithelial cell-derived adult stem cells at various concentrations of ROCK inhibitor, the amniotic epithelial cells obtained in Example 1 were subcultured in DMEM/F-12 media containing FBS, ascorbic acid, epidermal growth factor, insulin and an antibiotic, to which ROCK inhibitor Y-27632 has been added at various concentrations of 100 μM, 1 μM, 100 nM and 10 nM. After 1 day and 4 days of the subculture, the optimum ROCK inhibitor Y-27632 concentration for the culture of the adult stem cells was examined.

[4] = system: amniotic epithelial cell-derived adult stem cells; experiment: Culture and subculture of amniotic epithelial cells in the presence of ROCK inhibitor; details: 10 μM ROCK inhibitor added 4 days after isolation of the amniotic epithelial cells, FIG. 2
Method: The obtained amniotic epithelial cells were cultured in a medium (Gibco) consisting of a 1:1 mixture of DMEM (Dulbecco modified Eagle medium) and F-12 (nutrient mixture) to which FBS, ascorbic acid, epidermal growth factor, insulin, an antibiotic and 10 μM of ROCK inhibitor Y-27632 have been added at the concentrations shown in Table 2 below. After 3 days of culture, the adult stem cells derived from the cultured amniotic epithelial cells were washed with HBSS buffer, and then incubated with Tryple-express (Gibco) or 0.25% trypsin-EDTA at 37° C. for 10 minutes. An FBS-containing medium was added thereto to inactivate trypsin, and then 5×10^6 stem cells derived from the amniotic epithelial cells were obtained and seeded into a fresh medium and subcultured. For each reseeding for subcultures, 10 μM of ROCK inhibitor was added to each fresh medium.

[5] = system: amniotic epithelial cells; experiment: Isolation of amniotic epithelial cells from amniotic tissue, living cells counted by trypan blue
Method: 5 g of amniotic tissue was weighed and washed with HBSS. For stable isolation of amniotic epithelial cells, the washing process was carried out using HBSS buffer more similar to the constituents of the human body rather than using general PBS. The washed amniotic tissue was transferred into a 50-ml tube, and 10 mM DTT was added thereto. After treatment with DTT for 30 minutes, the supernatant was discarded, the amniotic tissue was finely cut, and the finely cut amniotic tissue was treated with fresh 0.05% trypsin-EDTA at 37° C. for 42 minutes under stirring, thus chemically degrading the tissue. The chemically degraded tissue was vortexed for 1 minute, and then it was primarily filtered through a 1-mm mesh and secondarily filtered through a 100-μm mesh, thus removing non-degraded tissue. The filtered tissue was centrifuged at 1800 rpm for 10 minutes. The single cell pellets at the bottom were well suspended, thus obtaining amniotic epithelial cells. Living cells were visually counted under a microscope using a hemocytometer according to trypan blue dye method and, as a result, the number of cells counted immediately after isolation was 3.72×10^7 cells (FIG. 1 (A)). On the other hand, in the case in which amniotic epithelial cells were isolated from amniotic tissue by treatment with trypsin alone without the addition of DTT, the number of cells counted immediately after isolation was 9.25×10^5 cells (FIG. 1 (B)).

For CC(N)C1CCC(C(=O)Nc2ccncc2)CC1 (stereo not drawn) [ROCK inhibitor, Y-27632], the “proliferation ability of the adult stem cells” value ([1]; case (A): 10 μM ROCK inhibitor only before reseeding, cultured 1 day) was “clearly increased compared to the control”, the “proliferation ability of adult stem cells” value ([1]; case (B): ROCK inhibitor continuously added during reseeding and culture, 1 day) was “superior compared to the case (A)” and the “apoptosis of the amniotic epithelial cells” value [2] was “inhibited”. The “proliferation of adult stem cells” value [2] was “significantly increased”, the degree of proliferation ([3]; 10 nM, after 1 day and 4 days of subculture, versus untreated control) was “did not greatly differ from that in the control” and the “cell morphology / differentiation” value ([3]; 100 μM, after 1 day and 4 days of subculture) was “a cell morphology change or cell differentiation appeared”. The “proliferation of the cells” value ([3]; after 1 day and 4 days of subculture) was “significantly increased”, the “most preferred concentration for the culture of the adult stem cells” value ([3]; tested at 100 μM, 1 μM, 100 nM and 10 nM) was “about 10 μM” and the “number of the adult stem cells” value [4] was “rapidly increased”.

O[C@H](CS)[C@H](O)CS (racemic) [DTT, dithiothreitol] was tested, and the “number of cells counted immediately after isolation” value ([5]; 5 g amniotic tissue, 10 mM DTT 30 minutes, then 0.05% trypsin-EDTA 37° C. 42 minutes) was 3.72×10^7 cells and the “number of isolated amniotic epithelial cells and number of cells after culture, versus trypsin alone” value ([5]; DTT and trypsin (FIG. 1 A, C) versus trypsin alone (B, D)) was “significantly larger”.

B1: trypsin: 0.05% trypsin-EDTA (Gibco) used to isolate single cells from amniotic tissue (protein, UniProt P00761 9-231, looked up)
Trypsin: IVGGYTCAANSIPYQVSLNSGSHFCGGSLINSQWVVSAAHCYKSRIQVRLGEHNIDVLEGNEQFINAAKIITHPNFNGNTLDNDIMLIKLSSPATLNSRVATVSLPRSCAAAGTECLISGWGNTKSSGSSYPSLLQCLKAPVLSDSSCKSSYPGQITGNMICVGFLEGGKDSCQGDSGGPVVCNGQLQGIVSWGYGCAQKNKPGVYTKVCNYVNWIQQTIAAN
modifications: with EDTA
notes: 0.05% trypsin-EDTA (Gibco) used to isolate single cells from amniotic tissue
For B1, the “number of cells counted immediately after isolation” value ([5]; treatment with trypsin alone without the addition of DTT) was 9.25×10^5 cells.
